Source: publication PMC6390583 (BMC rheumatology, 2018)

Tests used:
[1] = tested on: IL-15 induced STAT5 phosphorylation; assay: IL-15 induced STAT5 phosphorylation in activated T-cells; type: cell-based; conditions: Homo sapiens, T-cell; T-blasts, JAK 1/3; read-out: Human IC50, IL-15 pSTAT5
Experimental: IL-6 and Oncostatin M (OSM) induced STAT3 phosphorylation was assessed in the human erythroleukemia TF-1 cell line. Erythropoietin-induced STAT5 phosphorylation was assessed in the human UT-7 cell line. IL-2 and IL-15 induced STAT5 phosphorylation was assessed in activated human T-cells. Detection of phosphorylated STATs was accomplished with the SureFire pSTAT5 or pSTAT3 Assay kit (Perkin Elmer, Hopkinton, MA) per standard manufacturer’s protocol, with the exception of an overnight incubation following addition of donor beads before detection on the EnVision (Perkin Elmer, Hopkinton, MA). IFNγ induced STAT1 phosphorylation was assessed in the CD14+ monocyte population in human PBMC by flow cytometry. CD14 BV421 was purchased from BD Biosciences (San Jose, CA). STAT1 PE ([…]) was purchased from ThermoFisher Scientific (Waltham, MA). IL-4 and IL-13 induced STAT6 phosphorylation and IL-31 induced STAT3 phosphorylation were assessed in adult human epithelial keratinocytes (HEKa, ThermoFisher Scientific, Waltham, MA) by flow cytometry. STAT6 PE (pY641) and STAT3 PE (Y705) were purchased from BD Biosciences (San Jose, CA).

PAK4KD = target: T1, PAK4KD (Homo sapiens, UniProt O96013); assay: trFRET binding kinome profiling
T1 construct: PAK4KD
Experimental: (§1) JAK activity assays using isolated kinase domains in the presence of 0.1 mM ATP and trFRET kinome profiling were conducted as described previously (17).

Prkcn = Prkcn (Homo sapiens, UniProt O94806); assay: trFRET binding kinome profiling
Experimental: as §1

CAMK2A = CAMK2A (Homo sapiens, UniProt Q9UQM7); assay: trFRET binding kinome profiling
Experimental: as §1

CDK7/Cyclin H/Mat1 = CDK7/Cyclin H/Mat1 (Homo sapiens, UniProt P50613); assay: trFRET binding kinome profiling
Experimental: as §1

EGFR = EGFR (Homo sapiens, UniProt P00533); assay: trFRET binding kinome profiling
Experimental: as §1

ALK = ALK (Homo sapiens, UniProt Q9UM73); assay: trFRET binding kinome profiling
Experimental: as §1

JNK2 = JNK2 (Homo sapiens, UniProt P45984); assay: trFRET binding kinome profiling
Experimental: as §1

cMET = cMET (Homo sapiens, UniProt P08581); assay: trFRET binding kinome profiling
Experimental: as §1

PKG1A = PKG1A (Homo sapiens, UniProt Q13976); assay: trFRET binding kinome profiling
Experimental: as §1

Zipk = Zipk (Homo sapiens, UniProt O43293); assay: trFRET binding kinome profiling
Experimental: as §1

MAP3K10 = MAP3K10 (Homo sapiens, UniProt Q02779); assay: trFRET binding kinome profiling
Experimental: as §1

Src = Src (Homo sapiens, UniProt P12931); assay: trFRET binding kinome profiling
Experimental: as §1

PKA = PKA (Homo sapiens, UniProt P17612); assay: trFRET binding kinome profiling
Experimental: as §1

IGF1R = IGF1R (Homo sapiens, UniProt P08069); assay: trFRET binding kinome profiling
Experimental: as §1

FAK = FAK (Homo sapiens, UniProt Q05397); assay: trFRET binding kinome profiling
Experimental: as §1

MAP4K4 = MAP4K4 (Homo sapiens, UniProt O95819); assay: trFRET binding kinome profiling
Experimental: as §1

GRK5 = GRK5 (Homo sapiens, UniProt P34947); assay: trFRET binding kinome profiling
Experimental: as §1

LCK = LCK (Homo sapiens, UniProt P06239); assay: trFRET binding kinome profiling
Experimental: as §1

MEK2 = MEK2 (Homo sapiens, UniProt P36507); assay: trFRET binding kinome profiling
Experimental: as §1

[2] = tested on: IL-6 induced pSTAT3, CD3+ whole blood; assay: IL-6 signaling in human whole blood, CD3+ T-cell population; type: cell-based; conditions: JAK 1
reticulocyte deployment = assay: Epo induced reticulocyte deployment assay; type: in vivo; conditions: rat, Epo challenge, highest concentration tested
Experimental: Naïve male Lewis rats were injected intravenously with either PBS or 1000 IU of epoetin α (Procrit®, Janssen Products, LP, Horsham, PA) for two consecutive days. Reticulocytes were measured on day 4 by flow cytometry using thiozole orange as a dye as previously described.

Sequence of Zipk (O43293 whole entry, species assumed): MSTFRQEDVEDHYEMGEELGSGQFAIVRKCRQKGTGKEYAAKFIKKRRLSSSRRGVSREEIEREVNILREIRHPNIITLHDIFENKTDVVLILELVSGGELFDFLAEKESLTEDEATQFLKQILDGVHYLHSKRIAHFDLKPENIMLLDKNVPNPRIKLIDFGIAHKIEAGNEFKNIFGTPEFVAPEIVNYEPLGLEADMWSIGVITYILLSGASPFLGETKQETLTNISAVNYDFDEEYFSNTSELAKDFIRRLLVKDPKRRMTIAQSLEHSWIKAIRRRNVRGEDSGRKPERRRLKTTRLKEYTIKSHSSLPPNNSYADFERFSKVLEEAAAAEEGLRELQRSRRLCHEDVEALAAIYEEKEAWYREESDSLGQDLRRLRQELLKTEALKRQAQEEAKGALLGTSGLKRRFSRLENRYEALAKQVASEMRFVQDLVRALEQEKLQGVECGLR
Sequence of JNK2 (P45984 whole entry, species assumed): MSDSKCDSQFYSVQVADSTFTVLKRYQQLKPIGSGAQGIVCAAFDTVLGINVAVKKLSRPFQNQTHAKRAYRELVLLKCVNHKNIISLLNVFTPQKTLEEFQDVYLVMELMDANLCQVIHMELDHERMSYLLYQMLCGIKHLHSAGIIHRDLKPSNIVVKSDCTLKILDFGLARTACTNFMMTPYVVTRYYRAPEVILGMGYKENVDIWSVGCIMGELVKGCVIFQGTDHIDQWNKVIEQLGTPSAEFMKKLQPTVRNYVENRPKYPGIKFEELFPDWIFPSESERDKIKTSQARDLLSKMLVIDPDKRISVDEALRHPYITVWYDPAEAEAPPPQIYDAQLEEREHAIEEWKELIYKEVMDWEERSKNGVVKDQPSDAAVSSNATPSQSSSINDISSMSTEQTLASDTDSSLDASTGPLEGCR
Sequence of LCK (P06239 whole entry, species assumed): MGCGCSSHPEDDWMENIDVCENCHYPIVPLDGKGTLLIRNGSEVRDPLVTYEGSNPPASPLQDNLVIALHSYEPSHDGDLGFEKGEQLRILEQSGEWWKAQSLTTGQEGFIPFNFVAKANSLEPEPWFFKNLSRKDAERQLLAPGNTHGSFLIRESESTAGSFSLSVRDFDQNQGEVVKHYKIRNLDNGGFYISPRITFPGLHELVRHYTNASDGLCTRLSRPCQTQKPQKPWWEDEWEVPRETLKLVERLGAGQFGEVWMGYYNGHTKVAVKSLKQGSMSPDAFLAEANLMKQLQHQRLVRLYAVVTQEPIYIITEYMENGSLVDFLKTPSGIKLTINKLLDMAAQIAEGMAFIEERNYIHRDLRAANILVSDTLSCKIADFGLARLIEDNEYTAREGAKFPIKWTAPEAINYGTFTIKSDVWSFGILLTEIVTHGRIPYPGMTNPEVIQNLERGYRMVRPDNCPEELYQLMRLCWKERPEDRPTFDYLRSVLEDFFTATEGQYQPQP
Sequence of MAP4K4 (O95819 whole entry, species assumed): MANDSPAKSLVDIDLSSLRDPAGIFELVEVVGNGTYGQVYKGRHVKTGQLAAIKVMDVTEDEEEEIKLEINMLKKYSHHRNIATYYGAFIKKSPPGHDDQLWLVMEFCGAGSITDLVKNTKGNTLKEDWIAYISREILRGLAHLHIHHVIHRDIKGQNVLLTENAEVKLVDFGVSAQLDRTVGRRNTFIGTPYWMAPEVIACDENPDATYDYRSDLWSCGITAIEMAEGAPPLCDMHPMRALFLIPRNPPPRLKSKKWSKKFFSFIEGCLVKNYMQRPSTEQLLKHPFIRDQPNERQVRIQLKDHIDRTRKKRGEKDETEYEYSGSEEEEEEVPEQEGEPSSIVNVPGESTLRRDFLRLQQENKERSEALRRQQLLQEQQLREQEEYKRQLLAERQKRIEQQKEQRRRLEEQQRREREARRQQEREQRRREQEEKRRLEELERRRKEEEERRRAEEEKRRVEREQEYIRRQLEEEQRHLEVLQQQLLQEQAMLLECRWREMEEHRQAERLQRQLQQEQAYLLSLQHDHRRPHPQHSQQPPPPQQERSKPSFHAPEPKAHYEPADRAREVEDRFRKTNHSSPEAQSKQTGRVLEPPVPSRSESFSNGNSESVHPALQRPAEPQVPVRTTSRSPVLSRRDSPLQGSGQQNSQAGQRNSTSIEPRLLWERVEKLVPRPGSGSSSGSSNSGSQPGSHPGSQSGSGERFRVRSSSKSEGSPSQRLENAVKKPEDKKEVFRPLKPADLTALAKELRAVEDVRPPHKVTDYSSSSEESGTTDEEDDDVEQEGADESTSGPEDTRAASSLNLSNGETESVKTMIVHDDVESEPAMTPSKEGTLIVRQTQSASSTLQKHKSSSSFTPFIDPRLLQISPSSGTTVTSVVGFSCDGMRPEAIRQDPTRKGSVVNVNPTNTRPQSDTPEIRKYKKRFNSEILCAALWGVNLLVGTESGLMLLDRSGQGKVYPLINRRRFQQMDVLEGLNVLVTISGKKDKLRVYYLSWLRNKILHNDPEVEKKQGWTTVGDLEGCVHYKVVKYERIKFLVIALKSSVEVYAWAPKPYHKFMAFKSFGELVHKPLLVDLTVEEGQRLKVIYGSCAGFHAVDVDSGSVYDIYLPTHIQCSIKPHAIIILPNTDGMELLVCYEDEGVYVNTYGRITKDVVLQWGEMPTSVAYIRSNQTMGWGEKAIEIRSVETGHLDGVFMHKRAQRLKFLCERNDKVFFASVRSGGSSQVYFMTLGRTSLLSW
Sequence of cMET (P08581 25-1390): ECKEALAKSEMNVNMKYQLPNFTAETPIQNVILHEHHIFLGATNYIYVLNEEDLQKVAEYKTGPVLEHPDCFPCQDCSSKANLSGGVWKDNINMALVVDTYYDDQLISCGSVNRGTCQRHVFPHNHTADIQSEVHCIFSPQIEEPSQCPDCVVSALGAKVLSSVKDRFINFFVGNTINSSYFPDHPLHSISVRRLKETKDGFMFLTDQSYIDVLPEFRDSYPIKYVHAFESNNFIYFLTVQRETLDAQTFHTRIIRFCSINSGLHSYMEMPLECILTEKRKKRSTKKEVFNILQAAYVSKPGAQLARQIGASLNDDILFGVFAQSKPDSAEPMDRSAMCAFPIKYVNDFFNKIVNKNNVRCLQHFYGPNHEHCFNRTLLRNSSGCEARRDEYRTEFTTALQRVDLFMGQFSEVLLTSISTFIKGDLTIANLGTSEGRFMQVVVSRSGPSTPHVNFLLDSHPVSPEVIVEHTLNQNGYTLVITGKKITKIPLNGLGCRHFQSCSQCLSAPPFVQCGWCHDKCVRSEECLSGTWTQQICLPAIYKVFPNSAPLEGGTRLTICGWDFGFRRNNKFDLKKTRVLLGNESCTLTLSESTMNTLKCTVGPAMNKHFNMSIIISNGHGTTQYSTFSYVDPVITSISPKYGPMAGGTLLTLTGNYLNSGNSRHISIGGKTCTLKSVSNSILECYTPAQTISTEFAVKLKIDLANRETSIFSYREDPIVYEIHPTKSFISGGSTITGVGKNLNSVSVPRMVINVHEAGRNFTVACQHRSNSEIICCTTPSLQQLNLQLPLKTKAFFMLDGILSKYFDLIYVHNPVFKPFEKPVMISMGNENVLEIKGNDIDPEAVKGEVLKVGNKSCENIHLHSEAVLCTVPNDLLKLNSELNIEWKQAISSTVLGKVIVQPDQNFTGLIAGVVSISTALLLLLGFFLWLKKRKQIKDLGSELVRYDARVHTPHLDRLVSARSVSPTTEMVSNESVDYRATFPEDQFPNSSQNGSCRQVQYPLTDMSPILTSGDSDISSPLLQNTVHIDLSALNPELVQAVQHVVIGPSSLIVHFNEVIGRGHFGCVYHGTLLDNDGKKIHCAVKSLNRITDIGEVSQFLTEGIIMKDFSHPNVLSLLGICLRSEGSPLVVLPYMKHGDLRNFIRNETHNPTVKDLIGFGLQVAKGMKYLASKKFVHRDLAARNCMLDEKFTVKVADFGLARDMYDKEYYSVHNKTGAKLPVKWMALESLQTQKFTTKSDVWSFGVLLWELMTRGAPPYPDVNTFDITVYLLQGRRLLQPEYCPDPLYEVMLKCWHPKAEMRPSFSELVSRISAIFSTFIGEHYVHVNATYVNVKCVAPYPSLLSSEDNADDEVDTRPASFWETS
Sequence of FAK (Q05397 whole entry, species assumed): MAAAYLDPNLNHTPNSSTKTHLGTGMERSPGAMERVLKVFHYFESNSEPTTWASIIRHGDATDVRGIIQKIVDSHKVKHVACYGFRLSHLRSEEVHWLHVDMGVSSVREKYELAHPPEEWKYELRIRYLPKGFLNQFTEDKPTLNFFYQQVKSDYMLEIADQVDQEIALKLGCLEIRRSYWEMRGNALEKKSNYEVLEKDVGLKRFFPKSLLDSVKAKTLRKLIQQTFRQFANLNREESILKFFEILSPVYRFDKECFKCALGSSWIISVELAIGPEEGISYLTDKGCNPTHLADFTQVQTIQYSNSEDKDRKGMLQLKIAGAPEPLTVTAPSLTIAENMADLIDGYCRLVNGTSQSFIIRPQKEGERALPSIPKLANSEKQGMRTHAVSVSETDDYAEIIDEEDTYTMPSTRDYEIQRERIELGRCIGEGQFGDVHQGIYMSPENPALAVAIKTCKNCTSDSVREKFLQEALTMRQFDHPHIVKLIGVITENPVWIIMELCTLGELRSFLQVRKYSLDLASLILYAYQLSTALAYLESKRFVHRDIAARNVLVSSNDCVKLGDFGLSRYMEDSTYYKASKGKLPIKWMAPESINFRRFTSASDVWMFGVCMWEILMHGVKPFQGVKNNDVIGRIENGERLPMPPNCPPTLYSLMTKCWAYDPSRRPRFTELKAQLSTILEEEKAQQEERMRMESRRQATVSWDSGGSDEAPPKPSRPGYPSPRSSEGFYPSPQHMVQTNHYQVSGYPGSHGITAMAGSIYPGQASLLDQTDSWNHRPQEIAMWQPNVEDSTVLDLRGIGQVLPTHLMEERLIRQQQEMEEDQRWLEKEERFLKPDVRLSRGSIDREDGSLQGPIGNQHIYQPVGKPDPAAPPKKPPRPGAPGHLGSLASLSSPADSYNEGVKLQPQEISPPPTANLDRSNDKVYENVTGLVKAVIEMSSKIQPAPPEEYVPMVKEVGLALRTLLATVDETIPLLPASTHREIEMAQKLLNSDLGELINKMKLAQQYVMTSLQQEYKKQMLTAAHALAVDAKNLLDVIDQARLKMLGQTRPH

Structure (SMILES): CC[C@@H]1CN(C(=O)NCC(F)(F)F)C[C@@H]1c1cnc2cnc3[nH]ccc3n12 [upadacitinib, (3S,4R)-3-ethyl-4-(3H-imidazo [1,2-a]pyrrolo [2,3-e]pyrazin-8-yl)-N-(2,2,2-trifluoroethyl) pyrrolidine-1-carboxamide]
- IC50 [1]: 22 nM
- IC50 (PAK4KD): > 10 µM
- IC50 (Prkcn): > 10 µM
- IC50 (CAMK2A): > 10 µM
- IC50 (CDK7/Cyclin H/Mat1): > 10 µM
- IC50 (EGFR): > 10 µM
- IC50 (ALK): > 5.5 µM
- IC50 (JNK2): > 10 µM
- IC50 (cMET): > 10 µM
- IC50 (PKG1A): > 10 µM
- IC50 (Zipk): > 10 µM
- IC50 (MAP3K10): > 10 µM
- IC50 (Src): > 10 µM
- IC50 (PKA): > 10 µM
- IC50 (IGF1R): > 10 µM
- IC50 (FAK): > 10 µM
- IC50 (MAP4K4): > 10 µM
- IC50 (GRK5): > 7.9 µM
- IC50 (LCK): > 10 µM
- IC50 (MEK2): > 10 µM
- IC50 [2]: 207 nM
- Maximal inhibition of reticulocyte deployment (reticulocyte deployment): ~ 40%
